Results from patent publication US12241049B2, “Multi-compartment device containing human three-dimensional (3D) microtissues for toxicity testing” (BROWN UNIVERSITY, priority 2019, dated 2025).

Test system: HepaRG 3D microtissues
Settings: 10-day old HepaRG 3D microtissues, 1.2 mM CPA
Source text: FIG. 2B is a chart showing the change in HepaRG spheroid volume as an indicator of cytotoxicity induced by cyclophosphamide (CPA) with or without 1-aminobenzotriazol (ABT). The inventors analyzed the data with two-way ANOVA with Tukey's LSD means. P=0.05. […] FIG. 2C is a picture showing hematoxylin and eosin (H&E) stained toroid-shaped HepaRG microtissues. Scale bars=100 μm.

In the case of O=P1(N(CCCl)CCCl)NCCCO1 (stereo not shown) [CPA, cyclophosphamide], the “cytotoxicity: cell death and spheroid volume” value was “caused cell death and a significant reduction in spheroid volume”.
